Where two headings read alike, the source gives them in different places.
Columns and labels:
human CA-XII = target: T1, human CA-XII (Homo sapiens, UniProt O43570); assay: Surface Plasmon Resonance (SPR) binding kinetics to recombinant human CA-XII (Biacore 8K, single-cycle kinetics, 1:1 binding model)
T1 construct: purchased Creative BioMart CA12-261H
How it was run: (§1)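 Recombinant human CA-IX or CA-XII captured on streptavidin chips (1200-1800 RU) in PBS-P+, pH 7.4. Single-cycle kinetics over 9 analyte concentrations (100-0.39 nM) with 1% DMSO, 120 s association, 1200 s dissociation, 25° C. Reference- and DMSO-corrected curves fit to 1:1 model for on/off rates.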

human CA-IX = target: T2, human CA-IX (Homo sapiens, UniProt Q16790); assay: Surface Plasmon Resonance (SPR) binding kinetics to recombinant human CA-IX (Biacore 8K, single-cycle kinetics, 1:1 binding model)
T2 construct: purchased Acro CA9-H82E3
How it was run: as §1

[1] = Chelated Metal: Lu-175, 25° C., pH 7.4, read-out: CAXII KD
[2] = Chelated Metal: Lu-175; SPR, 25° C., pH 7.4; read-out: CAIX KD
[3] = read-out: CAXII KD, Chelated Metal: Lu-175, 25° C., pH 7.4
[4] = read-out: CAIX KD; Chelated Metal: Lu-175; SPR, 25° C., pH 7.4

T1 sequence (O43570 25-354): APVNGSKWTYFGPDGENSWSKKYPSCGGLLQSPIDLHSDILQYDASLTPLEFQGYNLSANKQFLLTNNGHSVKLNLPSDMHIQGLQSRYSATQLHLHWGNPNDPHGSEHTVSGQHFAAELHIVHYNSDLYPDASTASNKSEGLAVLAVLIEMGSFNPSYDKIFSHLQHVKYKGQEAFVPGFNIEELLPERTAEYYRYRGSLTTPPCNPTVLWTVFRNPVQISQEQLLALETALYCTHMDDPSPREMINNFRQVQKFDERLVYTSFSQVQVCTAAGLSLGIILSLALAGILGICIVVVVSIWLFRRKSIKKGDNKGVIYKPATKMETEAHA

SMILES	Kd (human CA-XII; [1])	Kd (human CA-IX; [2])	Kd (human CA-XII; [3])	Kd (human CA-IX; [4])	further results
CC(CCCC(=O)N1CCOC[C@H]1C(=O)N[C@@H](CC(=O)N1CCN(C(=O)CCOCCOCCOCCOCCN(CCOCCOCCOCCOCCC(=O)N2CCN(C(=O)C[C@H](NC(=O)[C@@H]3COCCN3C(=O)CCCC(C)(c3ccc(O)cc3)c3ccc(O)cc3)C(=O)O)[C@@H](C(=O)NCCn3cc(C45CC(C(=O)Nc6nnc(S(N)(=O)=O)s6)(C4)C5)nn3)C2)C(=O)CNC(=O)CN2CCN(CC(=O)O)CCN(CC(=O)O)CCN(CC(=O)O)CC2)C[C@@H]1C(=O)NCCn1cc(C23CC(C(=O)Nc4nnc(S(N)(=O)=O)s4)(C2)C3)nn1)C(=O)O)(c1ccc(O)cc1)c1ccc(O)cc1.[Lu+3] [Compound 131.3]	< 1 nM	< 1 nM			
CC(CCC(=O)N[C@@H](CC(=O)N[C@@H](CC(=O)N1CCN(C(=O)CCC(CCC(=O)N2CCN(C(=O)C[C@H](NC(=O)C[C@H](NC(=O)CCC(C)(c3ccc(O)cc3)c3ccc(O)cc3)C(=O)O)C(=O)O)[C@H](C(=O)NCCn3cc(C45CC(C(=O)Nc6nnc(S(N)(=O)=O)s6)(C4)C5)nn3)C2)NC(=O)CN2CCN(CC(=O)O)CCN(CC(=O)O)CCN(CC(=O)O)CC2)C[C@H]1C(=O)NCCn1cc(C23CC(C(=O)Nc4nnc(S(N)(=O)=O)s4)(C2)C3)nn1)C(=O)O)C(=O)O)(c1ccc(O)cc1)c1ccc(O)cc1 (some centres unmarked) [Compound 131.4]					Kd (human CA-XII; Chelated Metal: None, 25° C., pH 7.4, read-out: CAXII KD): < 1 nM; Kd (human CA-IX; Chelated Metal: None; SPR, 25° C., pH 7.4; read-out: CAIX KD): < 1 nM; Ratio (CAXII/CAIX) (human CA-IX; KD ratio CAXII/CAIX; Chelated Metal: None): * (1 < * < 5)
N[C@@H](CC(=O)N[C@@H](CC(=O)N1CCN(C(=O)CCOCCOCCOCCOCCN(CCOCCOCCOCCOCCC(=O)N2CCN(C(=O)C[C@H](NC(=O)C[C@H](N)C(=O)O)C(=O)O)[C@H](C(=O)NCCn3cc(C45CC(C(=O)Nc6nnc(S(N)(=O)=O)s6)(C4)C5)nn3)C2)C(=O)CNC(=O)CN2CCN(CC(=O)O)CCN(CC(=O)O)CCN(CC(=O)O)CC2)C[C@H]1C(=O)NCCn1cc(C23CC(C(=O)Nc4nnc(S(N)(=O)=O)s4)(C2)C3)nn1)C(=O)O)C(=O)O.[Lu+3] [Compound 131.5]	< 1 nM	< 1 nM			
CC(CCCC(=O)N1CCOC[C@H]1C(=O)N[C@@H](CC(=O)N1CCN(C(=O)CCOCCOCCOCCOCCN(CCOCCOCCOCCOCCC(=O)N2CCN(C(=O)C[C@H](NC(=O)[C@@H]3COCCN3C(=O)CCCC(C)(c3ccc(O)cc3)c3ccc(O)cc3)C(N)=O)[C@@H](C(=O)NCCn3cc(C45CC(C(=O)Nc6nnc(S(N)(=O)=O)s6)(C4)C5)nn3)C2)C(=O)CNC(=O)CN2CCN(CC(=O)O)CCN(CC(=O)O)CCN(CC(=O)O)CC2)C[C@@H]1C(=O)NCCn1cc(C23CC(C(=O)Nc4nnc(S(N)(=O)=O)s4)(C2)C3)nn1)C(N)=O)(c1ccc(O)cc1)c1ccc(O)cc1.[Lu+3] [Compound 131.6]	1 to 2.5 nM	< 1 nM			
CC(CCCC(=O)N1CCC(C(N)=O)(C(=O)NCC(=O)NC2CCN(C(=O)CCOCCOCCOCCOCCN(CCOCCOCCOCCOCCC(=O)N3CCC(NC(=O)CNC(=O)C4(C(N)=O)CCN(C(=O)CCCC(C)(c5ccc(O)cc5)c5ccc(O)cc5)CC4)C(C(=O)NCCn4cc(C56CC(C(=O)Nc7nnc(S(N)(=O)=O)s7)(C5)C6)nn4)C3)C(=O)CNC(=O)CN3CCN(CC(=O)O)CCN(CC(=O)O)CCN(CC(=O)O)CC3)CC2C(=O)NCCn2cc(C34CC(C(=O)Nc5nnc(S(N)(=O)=O)s5)(C3)C4)nn2)CC1)(c1ccc(O)cc1)c1ccc(O)cc1.[Lu+3] (centres unmarked) [Compound 131.7]	1 to 2.5 nM	< 1 nM			
CC(CCCC(=O)N1CCC(C(N)=O)(C(=O)NCC(=O)N2CCN(C(=O)CCOCCOCCOCCOCCN(CCOCCOCCOCCOCCC(=O)N3CCN(C(=O)CNC(=O)C4(C(N)=O)CCN(C(=O)CCCC(C)(c5ccc(O)cc5)c5ccc(O)cc5)CC4)[C@H](C(=O)NCCn4cc(C56CC(C(=O)Nc7nnc(S(N)(=O)=O)s7)(C5)C6)nn4)C3)C(=O)CNC(=O)CN3CCN(CC(=O)O)CCN(CC(=O)O)CCN(CC(=O)O)CC3)C[C@H]2C(=O)NCCn2cc(C34CC(C(=O)Nc5nnc(S(N)(=O)=O)s5)(C3)C4)nn2)CC1)(c1ccc(O)cc1)c1ccc(O)cc1.[Lu+3] [Compound 131]			2.5 to 10 nM	< 1 nM	
NS(=O)(=O)c1nnc(NC(=O)C23CCC(c4cn(CCNC(=O)[C@@H]5CN(C(=O)CCCc6ccc(O)cc6)CCN5C(=O)CC[C@H](NC(=O)C[C@H](NC(=O)CN5CCN(CC(=O)O)CCN(CC(=O)O)CCN(CC(=O)O)CC5)C(=O)O)C(=O)O)nn4)(CC2)CC3)s1.[Lu+3] [Compound 132]			1 to 2.5 nM	< 1 nM	
CC(C)(CCCC(=O)N1CCC(C(N)=O)(C(=O)NCC(=O)N2CCN(C(=O)CN3CCN(CC(=O)O)CCN(CC(=O)O)CCN(CC(=O)O)CC3)C[C@H]2C(=O)NCCn2cc(C34CC(C(=O)Nc5nnc(S(N)(=O)=O)s5)(C3)C4)nn2)CC1)c1ccc(O)cc1.[Lu+3] [Compound 133]			> 10 nM	< 1 nM	
CC(CCCC(=O)N1CCC(C(N)=O)(C(=O)NCC(=O)NC2(C(=O)N[C@@H](Cn3cc(C45CC(C(=O)Nc6nnc(S(N)(=O)=O)s6)(C4)C5)nn3)C(=O)O)CCN(C(=O)CN3CCN(CC(=O)O)CCN(CC(=O)O)CCN(CC(=O)O)CC3)CC2)CC1)(c1ccc(O)cc1)c1ccc(O)cc1.[Lu+3] [Compound 134]			> 10 nM	< 1 nM	
CC(CCCC(=O)N1CCC(C(N)=O)(C(=O)NCC(=O)NC2(C(=O)NCCn3nnc(C45CC(C(=O)Nc6nnc(S(N)(=O)=O)s6)(C4)C5)c3C(=O)O)CCN(C(=O)CN3CCN(CC(=O)O)CCN(CC(=O)O)CCN(CC(=O)O)CC3)CC2)CC1)(c1ccc(O)cc1)c1ccc(O)cc1.[Lu+3] [Compound 135]			> 10 nM	< 1 nM	
CC(CCCC(=O)N1CCC(C(N)=O)(C(=O)NCC(=O)NC2(C(=O)NCCn3nnc(C45CC(C(=O)Nc6nnc(S(N)(=O)=O)s6)(C4)C5)c3C(N)=O)CCN(C(=O)CN3CCN(CC(=O)O)CCN(CC(=O)O)CCN(CC(=O)O)CC3)CC2)CC1)(c1ccc(O)cc1)c1ccc(O)cc1.[Lu+3] [Compound 136]			> 10 nM	< 1 nM	

From patent publication US20260325685A1, “Radiopharmaceutical Compositions Targeting Carbonic Anhydrase IX and Uses Thereof” (RayzeBio, Inc., priority 2023, published 2026)
